Holding throughout (test): DTP human tumour cell line panel, 48 h
For test [1], the system named is 786-0.
Test [2] deals with COLO 205.
The test system of test [3] is EKVX.
In test [4] the test system is HCC 2998.
For test [5], the system named is HOP-62.
In test [6] the test system is K562.
For test [7], the system named is LOX IMVI.
The test system of test [8] is NCI-H23.
Test [9] concerns OVCAR-3.
Test [10] concerns OVCAR-4.
The test system of test [11] is OVCAR-8.
The test system of test [12] is RPMI-8226.
Test [13] has as its system SF-539.
Test [14] deals with SN12C.
Test [15] has as its system SNB-75.
For test [16], the system named is SR.
The test system of test [17] is SW-620.
The test system of test [18] is U-251.
The test system of test [19] is UACC-62.
Test [20] deals with Malme-3M.

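Five compound concentrations were applied to cells in 96-well plates for 48 hours; endpoints were derived by simple linear interpolation of the resulting dose-response curve. GI50: concentration for 50% inhibition of growth.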 Activity calls are given as the source filed them. Rule as the data show it: active = GI50 up to about 1.1 µM and inactive = higher. Bounds are passed on as bounds.

A word on the GI50: it is the concentration at which growth is held to half of that of the control. For the molecule `N#C[C@H](C(=O)c1ccccc1F)c1nc2ccccc2[nH]1`, the GI50 in test [1], in test [2], in test [3], in test [4], in [5] and in [6] was > 100 µM (inactive) each time. Moreover, the GI50 in test [7], in [8], in test [9], in test [10], in test [11] and in test [12] was > 100 µM (inactive) in each case. Moreover, the GI50 is > 100 µM (inactive) in test [13]; > 100 µM (inactive) in test [14]; 82.6 µM (inactive) in test [15]; 58.9 µM (inactive) in test [16]; > 100 µM (inactive) in [17]; > 100 µM (inactive) in test [18]. Also, the GI50 in [19] was > 100 µM (inactive).

Regarding `O=C(Cn1c(-c2ccccc2)cc2ccccc21)N1CCCC1`, the GI50 in test [1], in [2], in [3], in [5], in test [7] and in test [20] was > 100 µM (inactive) throughout. Further, the GI50 in [9], in test [10], in test [11], in test [14], in [15] and in test [16] was > 100 µM (inactive) each time. Also, the GI50 in test [17] and in test [19] was > 100 µM (inactive) in each case.

For the molecule `O=c1[nH]c(=O)n(COCCO)c2ccc(Br)cc12`, the GI50 was > 100 µM (inactive) in test [1]; > 100 µM (inactive) in [2]; 92.3 µM (inactive) in test [3]; > 100 µM (inactive) in test [6]; > 100 µM (inactive) in [7]; > 100 µM (inactive) in test [9]. The GI50 in test [10] was > 100 µM (inactive); in test [11], > 100 µM (inactive); in test [13], > 100 µM (inactive); in test [14] it was > 100 µM (inactive); in test [15] it was 39 µM (inactive); in test [16], 80.4 µM (inactive). The GI50 in [17], in test [18] and in test [19] was > 100 µM (inactive) each time.

On to `Cc1c(C(=O)C(=O)c2ccccc2)c(C)c(C(=O)C(=O)c2ccccc2)c(C)c1C(=O)C(=O)c1ccccc1`, for which the GI50 in test [1], in test [2], in test [3], in test [4], in test [5] and in [6] was > 100 µM (inactive) in each case. Further, the GI50 in test [10], in [11], in [12], in test [13], in [14] and in test [15] was > 100 µM (inactive) throughout. In addition, the GI50 in test [16], in test [17] and in test [18] was > 100 µM (inactive) each time.

Turning to `Nc1c(-c2ccc(-c3c(N)[n+]([O-])c4ccccc4[n+]3[O-])cc2)[n+]([O-])c2ccccc2[n+]1[O-]`, the GI50 was 13.5 µM (inactive) in test [1]; 10.1 µM (inactive) in test [2]; 31.8 µM (inactive) in [3]; 15.1 µM (inactive) in test [4]; 17.8 µM (inactive) in test [5]; 15.7 µM (inactive) in test [6]. The GI50 in test [7] was 9.75 µM (inactive); in test [20], 3.02 µM (inactive); in test [8], 6.21 µM (inactive); in [9] it was 15.7 µM (inactive); in test [10], 17.7 µM (inactive); in test [11], 18.9 µM (inactive). Further, the GI50 in test [12] is 23.8 µM (inactive); in test [13] it was 4.92 µM (inactive); in test [14] it was 11.7 µM (inactive); in [15] it was 8.15 µM (inactive); in test [17], 4.5 µM (inactive); in test [18], 14.7 µM (inactive). For the same molecule, in test [19], the GI50 was 10.2 µM (inactive).

Consider `COC(=O)c1c(C)cc(OC)c(C/C=C(\C)CCCc2coc(C=C(C)C)c2)c1OC`, for which the GI50 in test [1], in [2], in test [3], in test [4], in test [5] and in [6] was > 100 µM (inactive) each time. Besides, the GI50 is > 100 µM (inactive) in test [7]; > 100 µM (inactive) in test [8]; > 100 µM (inactive) in [9]; > 100 µM (inactive) in test [10]; > 100 µM (inactive) in test [11]; 99.5 µM (inactive) in [12]. For the same molecule, the GI50 in test [13] was 49 µM (inactive); in test [14], > 100 µM (inactive); in test [15] it was 21.3 µM (inactive); in [16] it was 7.6 µM (inactive); in test [17] it was > 100 µM (inactive); in test [18], > 100 µM (inactive). In test [19], the GI50 is > 100 µM (inactive).

Turning to `Cc1ccc(S(=O)(=O)[N-]C2C(=O)c3ccccc3C(=O)C2[n+]2cccc(C(N)=O)c2)cc1` (configuration not stated), the GI50 was 30.8 µM (inactive) in [1]; 24.8 µM (inactive) in test [2]; > 100 µM (inactive) in [3]; 38.5 µM (inactive) in test [4]; > 100 µM (inactive) in test [5]; > 100 µM (inactive) in [6]. For the same molecule, the GI50 in test [7] is 30.7 µM (inactive); in [8], > 100 µM (inactive); in test [9], > 100 µM (inactive); in [10], 26.9 µM (inactive); in [11] it was > 100 µM (inactive); in test [12] it was > 100 µM (inactive). Further, the GI50 is > 100 µM (inactive) in [13]; 30.3 µM (inactive) in [14]; > 100 µM (inactive) in test [15]; > 100 µM (inactive) in test [16]; > 100 µM (inactive) in [17]; > 100 µM (inactive) in test [18]. Further, the GI50 in [19] is > 100 µM (inactive).

Regarding `Cc1nc2c(=O)n3c4c(cccc4c2o1)CCC3`, the GI50 in [1] was > 100 µM (inactive); in [2] it was > 100 µM (inactive); in [3], 76.6 µM (inactive); in [4] it was > 100 µM (inactive); in test [5], > 100 µM (inactive); in test [6], 72.8 µM (inactive). For the same molecule, the GI50 in [7], in test [20], in test [8], in [9], in test [10] and in test [11] was > 100 µM (inactive) each time. The GI50 in [12] is > 100 µM (inactive); in [13], 73.5 µM (inactive); in test [14] it was > 100 µM (inactive); in test [15] it was > 100 µM (inactive); in test [17], > 100 µM (inactive); in [18] it was 96.8 µM (inactive). Besides, the GI50 in [19] is > 100 µM (inactive).

As for `CCN(CC)CCNC(=O)c1cc2cc(NC(=O)c3cc4cc([N+](=O)[O-])ccc4[nH]3)ccc2[nH]1`, the GI50 was 2.25 µM (inactive) in [1]; 5.68 µM (inactive) in [2]; 4.98 µM (inactive) in test [3]; 11.2 µM (inactive) in [4]; > 77.1 µM (inactive) in [5]; 1.61 µM (inactive) in test [6]. The GI50 is 3.86 µM (inactive) in [7]; 8.49 µM (inactive) in [8]; > 40.6 µM (inactive) in test [9]; > 50.4 µM (inactive) in test [10]; 2.99 µM (inactive) in test [11]; 1.82 µM (inactive) in test [12]. Besides, the GI50 in [13] was 6.43 µM (inactive); in test [14], > 65.2 µM (inactive); in test [15], 4.89 µM (inactive); in [16] it was 7.29 µM (inactive); in test [17], 6.11 µM (inactive); in test [18], 1.84 µM (inactive). Further, the GI50 in [19] was 32 µM (inactive).

For `O=c1oc2cc(O)ccc2c(O)c1C(c1ccccc1F)c1c(O)c2ccc(O)cc2oc1=O`, the GI50 in test [1] is > 100 µM (inactive); in test [2], > 100 µM (inactive); in [3], > 100 µM (inactive); in [4], 21.2 µM (inactive); in test [5] it was > 100 µM (inactive); in [6], 25.4 µM (inactive). Further, the GI50 in [7] is 46 µM (inactive); in test [8], > 100 µM (inactive); in test [9] it was > 100 µM (inactive); in [11] it was 56.4 µM (inactive); in [12], 29.6 µM (inactive); in [13] it was 31.7 µM (inactive). Moreover, the GI50 in test [14] is > 100 µM (inactive); in test [15], > 100 µM (inactive); in test [16], 34.7 µM (inactive); in test [17], 38.4 µM (inactive); in [18], 42.3 µM (inactive); in test [19], 36.6 µM (inactive).

For `C=C(C)[C@@H]1CC[C@]2(C(=O)O)CC[C@]3(C)[C@H](CCC4[C@@]5(C)CC[C@H](C(=O)/C=C/c6ccc(O)c(O)c6)C(C)(C)[C@@H]5CC[C@]43C)[C@@H]12` (some centres not stated), the GI50 in test [1] was 4.35 µM (inactive); in test [2], 2.84 µM (inactive); in test [3] it was 8.55 µM (inactive); in [4], 1.88 µM (inactive); in [5] it was 2.9 µM (inactive); in test [6] it was 3.85 µM (inactive). The GI50 in test [7] was 3.34 µM (inactive); in test [8], 2.61 µM (inactive); in test [9], 10.7 µM (inactive); in test [10], 10.4 µM (inactive); in [11] it was 4.46 µM (inactive); in test [13], 2.53 µM (inactive). The GI50 in test [14] was 5.02 µM (inactive); in test [15] it was 0.0513 µM (active); in test [16], 3.4 µM (inactive); in test [19], 3.77 µM (inactive).

The record behind these values is ChEMBL document CHEMBL1201862, “PubChem BioAssay data set” (2004).
